IC50 data for 18 compounds are collected here from US9718828B2 (MERCK SHARP & DOHME CORP., priority 2011, dated 2017).

Counter-ions that a name gives are not always drawn.

The target of one test is hBTK (full-length BTK, 6HIS-tag cleaved) (Homo sapiens (Human), UniProt Q06187). The experiment in a line: BTK enzymatic activity, LANCE TR-FRET assay (Assay Method C). The format is biochemical. The following applies: LANCE TR-FRET, 50 pM hBTK, 25 μM ATP; class 100-1000 is given as ≧100 nM-<1 μM; read-out: IC50 Btk activity values - Assay Method C.
Chain of hBTK (full-length BTK, 6HIS-tag cleaved) (Q06187 whole entry): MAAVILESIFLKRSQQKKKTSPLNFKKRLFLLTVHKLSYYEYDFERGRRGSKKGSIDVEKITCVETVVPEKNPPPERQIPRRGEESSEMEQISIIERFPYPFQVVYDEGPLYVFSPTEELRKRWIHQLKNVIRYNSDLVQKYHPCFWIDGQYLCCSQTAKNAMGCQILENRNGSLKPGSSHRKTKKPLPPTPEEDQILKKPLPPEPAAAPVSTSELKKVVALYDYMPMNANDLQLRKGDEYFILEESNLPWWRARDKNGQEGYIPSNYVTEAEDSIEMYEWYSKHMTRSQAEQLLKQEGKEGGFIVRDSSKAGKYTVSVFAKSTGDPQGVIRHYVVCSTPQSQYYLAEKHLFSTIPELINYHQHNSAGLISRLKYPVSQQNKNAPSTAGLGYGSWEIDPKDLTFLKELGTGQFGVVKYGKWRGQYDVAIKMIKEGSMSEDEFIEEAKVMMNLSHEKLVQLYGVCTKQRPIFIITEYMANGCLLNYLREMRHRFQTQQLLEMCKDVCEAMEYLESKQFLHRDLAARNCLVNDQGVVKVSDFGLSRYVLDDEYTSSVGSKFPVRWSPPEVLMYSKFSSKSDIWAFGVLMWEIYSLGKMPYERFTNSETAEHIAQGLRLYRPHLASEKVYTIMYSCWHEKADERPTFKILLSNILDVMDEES
For `CC1(C(=O)N2CCC[C@@H](c3nc(-c4ccc(C(=O)Nc5cc(C(F)(F)F)ccn5)cc4F)c4c(N)ncc(Cl)n34)C2)COC1` [Example 447, 4-(8-amino-5-chloro-3-{(3R)-1-[(3-methyloxetan-3-yl)carbonyl]piperidin-3-yl}imidazo[1,5-a]pyrazin-1-yl)-3-fluoro-N-[4-(trifluoromethyl)pyridin-2-yl]benzamide], the IC50 is less than 10 nM. The same measure, in the same setting: then `C[C@@H](O)C(=O)N1CCO[C@@H](c2nc(-c3ccc(C(=O)Nc4cc(C(F)(F)F)ccn4)cc3)c3c(N)ncc(Cl)n23)C1` [Example 524, 4-(8-amino-5-chloro-3-{(2R)-4-[(2R)-2-hydroxypropanoyl]morpholin-2-yl}imidazo[1,5-a]pyrazin-1-yl)-N-[4-(trifluoromethyl)pyridin-2-yl]benzamide], with less than 10 nM; and `CC1(C(=O)N2CCC[C@@H](c3nc(-c4ccc(C(=O)Nc5cc(C(F)(F)F)ccn5)cc4)c4c(N)ncc(CO)n34)C2)COC1` [Example 471, 4-[8-amino-5-(hydroxymethyl)-3-{(3R)-1-[(3-methyloxetan-3-yl)carbonyl]piperidin-3-yl}imidazo[1,5-a]pyrazin-1-yl]-N-[4-(trifluoromethyl)pyridin-2-yl]benzamide], with less than 10 nM; and `Nc1nccn2c([C@@H]3CCCN(C(=O)c4cnsn4)C3)nc(-c3ccc(C(=O)Nc4cc(C(F)(F)F)ccn4)cc3)c12` [Example 330, 4-{8-amino-3-[(3R)-1-(1,2,5-thiadiazol-3-ylcarbonyl)piperidin-3-yl]imidazo[1,5-a]pyrazin-1-yl}-N-[4-(trifluoromethyl)pyridin-2-yl]benzamide], with less than 10 nM.

Consider `CCOCCN1CCO[C@@H](c2nc(-c3ccc(C(=O)Nc4cc(C(F)(F)F)ccn4)cc3)c3c(N)ncc(C)n23)C1` [Example 541, 4-{8-amino-3-[(2R)-4-(2-ethoxyethyl)morpholin-2-yl]-5-methylimidazo[1,5-a]pyrazin-1-yl}-N-[4-(trifluoromethyl)pyridin-2-yl]benzamide, TFA salt], for which the IC50 is less than 10 nM. Same read-out and setting: under `CC1(C(=O)N2CCC[C@@H](c3nc(-c4ccc(C(=O)Nc5ccc(Cl)cn5)cc4)c4c(N)nccn34)C2)COC1` [Example 358, 4-(8-amino-3-{(3R)-1-[(3-methyloxetan-3-yl)carbonyl]piperidin-3-yl}imidazo[1,5-a]pyrazin-1-yl)-N-(5-chloropyridin-2-yl)benzamide] stands less than 10 nM; under `CCN1CCC(c2nc(-c3ccc(C(=O)Nc4cc(C(F)(F)F)ccn4)cc3)c3c(N)nccn23)CC1=O` (centres unmarked) [Example 573, 4-[8-amino-3-(1-ethyl-2-oxopiperidin-4-yl)imidazo[1,5-a]pyrazin-1-yl]-N-[4-(trifluoromethyl)-pyridin-2-yl]benzamide, TFA salt], 10 to 100 nM; under `CC(=O)N1C[C@H](c2nc(-c3ccc(C(=O)Nc4cc(C(F)F)ccn4)cc3F)c3c(N)ncc(C)n23)CC[C@@H]1C` [Example 461, 4-{3-[(3R,6S)-1-acetyl-6-methylpiperidin-3-yl]-8-amino-5-methylimidazo[1,5-a]pyrazin-1-yl}-N-[4-(difluoromethyl)pyridin-2-yl]-3-fluorobenzamide], less than 10 nM. With `Cn1cc2c(n1)CCC[C@@H]2n1nc(-c2ccc(C(=O)Nc3cc(C(F)(F)F)ccn3)cc2)c2c(N)ncnc21` [Example 558, 4-{4-amino-1-[(4S)-2-methyl-4,5,6,7-tetrahydro-2H-indazol-4-yl]-1H-pyrazolo[3,4-d]pyrimidin-3-yl}-N-[4-(trifluoromethyl)pyridin-2-yl]benzamide, TFA salt], the IC50 is less than 10 nM. Turning to `C[C@H]1CC[C@@H](c2nc(-c3ccc(C(=O)Nc4cc(C(F)F)ccn4)cc3F)c3c(N)nccn23)CN1C(=O)C1CC1` [Example 436, 4-{8-amino-3-[(3R,6S)-1-(cyclopropylcarbonyl)-6-methylpiperidin-3-yl]imidazo[1,5-a]pyrazin-1-yl}-N-[4-(difluoromethyl)pyridin-2-yl]-3-fluorobenzamide], the half-maximal inhibitory concentration (IC50) is less than 10 nM.

With `COCCC(=O)N1CCO[C@@H](c2nc(-c3ccc(C(=O)Nc4cc(C(F)(F)F)ccn4)cc3)c3c(N)ncc(C)n23)C1` [Example 510, 4-{8-amino-3-[(2R)-4-(3-methoxypropanoyl)morpholin-2-yl]-5-methylimidazo[1,5-a]pyrazin-1-yl}-N-[4-(trifluoromethyl)pyridin-2-yl]benzamide], the IC50 was less than 10 nM.

Consider `COCC(=O)N1CCC[C@@H](c2nc(-c3ccc(C(=O)Nc4cc(C(F)(F)F)ccn4)cc3F)c3c(N)ncc(COC)n23)C1` [Example 452, 4-{8-amino-3-[(3R)-1-(methoxyacetyl)piperidin-3-yl]-5-(methoxymethyl)imidazo[1,5-a]pyrazin-1-yl}-3-fluoro-N-[4-(trifluoromethyl)pyridin-2-yl]benzamide], for which the IC50 was less than 10 nM.

As to `COc1ccnc(NC(=O)c2ccc(-c3nc([C@@H]4CCCN(C(=O)C5(C)COC5)C4)n4c(Cl)cnc(N)c34)cc2)c1` [Example 444, 4-(8-amino-5-chloro-3-{(3R)-1-[(3-methyloxetan-3-yl)carbonyl]piperidin-3-yl}imidazo[1,5-a]pyrazin-1-yl)-N-(4-methoxypyridin-2-yl)benzamide], the IC50 was less than 10 nM. Still for that read-out and setting: then `COCC(=O)N1CCO[C@@H](c2nc(-c3ccc(C(=O)Nc4cc(C(F)(F)F)ccn4)cc3)c3c(N)ncc(Cl)n23)C1` [Example 528, 4-{8-amino-5-chloro-3-[(2R)-4-(methoxyacetyl)morpholin-2-yl]imidazo[1,5-a]pyrazin-1-yl}-N-[4-(trifluoromethyl)pyridin-2-yl]benzamide], with less than 10 nM; and `Nc1nccc2c1c(-c1ccc(C(=O)Nc3cc(C(F)(F)F)ccn3)cc1)nn2[C@@H]1CCCN(C(=O)C2CC2)C1` [Example 384, 4-{4-amino-1-[(3R)-1-(cyclopropylcarbonyl)piperidin-3-yl]-1H-pyrazolo[4,3-c]pyridin-3-yl}-N-[4-(trifluoromethyl)pyridin-2-yl]benzamide], with less than 10 nM; and `CSCCC(=O)N1CCO[C@@H](c2nc(-c3ccc(C(=O)Nc4cc(C(F)(F)F)ccn4)cc3)c3c(N)nccn23)C1` [Example 502, 4-(8-amino-3-{(2R)-4-[3-(methylsulfanyl)propanoyl]morpholin-2-yl}imidazo[1,5-a]pyrazin-1-yl)-N-[4-(trifluoromethyl)pyridin-2-yl]benzamide], with less than 10 nM. On the same count and under the same terms, under `C[C@H]1CO[C@@H](c2nc(-c3ccc(C(=O)Nc4cc(C(F)(F)F)ccn4)cc3)c3c(N)nccn23)CN1C(=O)C1CC1` [Example 516, 4-{8-amino-3-[(2R,5S)-4-(cyclopropylcarbonyl)-5-methylmorpholin-2-yl]imidazo[1,5-a]pyrazin-1-yl}-N-[4-(trifluoromethyl)pyridin-2-yl]benzamide, TFA salt] stands less than 10 nM; under `CC1(C(=O)N2CCC[C@@H](c3nc(-c4ccc(C(=O)Nc5cccnn5)cc4)c4c(N)nccn34)C2)COC1` [Example 357, 4-(8-amino-3-{(3R)-1-[(3-methyloxetan-3-yl)carbonyl]piperidin-3-yl}imidazo[1,5-a]pyrazin-1-yl)-N-pyridazin-3-ylbenzamide], 100 to 1000 nM.

The same test, now with this note: Table D; Assay Method C (LANCE TR-FRET), 50 pM hBTK, 25 μM ATP; read-out: IC50 BTK activity value.
Turning to `C[C@H]1CC[C@@H](c2nc(-c3ccc(C(=O)Nc4cc(C(F)F)ccn4)cc3F)c3c(N)nccn23)CN1C(=O)C1CC1` [Example 436, 4-{8-amino-3-[(3R,6S)-1-(cyclopropylcarbonyl)-6-methylpiperidin-3-yl]imidazo[1,5-a]pyrazin-1-yl}-N-[4-(difluoromethyl)pyridin-2-yl]-3-fluorobenzamide], the IC50 amounted to 0.479 nM. Still for that read-out and setting: then `COCC(=O)N1CCO[C@@H](c2nc(-c3ccc(C(=O)Nc4cc(C(F)(F)F)ccn4)cc3)c3c(N)ncc(Cl)n23)C1` [Example 528, 4-{8-amino-5-chloro-3-[(2R)-4-(methoxyacetyl)morpholin-2-yl]imidazo[1,5-a]pyrazin-1-yl}-N-[4-(trifluoromethyl)pyridin-2-yl]benzamide], with 0.892 nM.
